Results reported in patent US20260061000A1, “COMPOSITIONS AND METHODS FOR THE TREATMENT OF CARDIAC ARRHYTHMIAS, INCLUDING ATRIAL FIBRILLATION” (Lankenau Institute for Medical Research, priority 2022, published 2026).
Values joined by “and” are separate entries in the source; they are usually repeats but may differ in a detail not shown here. Equal entries are not always repeated. “Also recorded” adds a separate entry of the source.

How the values were obtained:
[1] = system: acetylcholine-mediated AF; experiment: AF cardioversion in canine acetylcholine-mediated AF model (isolated coronary-perfused right atrial preparations); details: for AF cardioversion (atria cardioverted / tested): flecainide 1.5 μM
Protocol: This investigation conforms with the Guide for Care and Use of Laboratory Animals. Hearts from purpose-bred adult male Beagle dogs (10-16 kg, 10-19 months old) were obtained from Envigo (Denver, PA). Dogs were sedated with ketamine (10 mg/kg, intramuscularly [IM]) and xylazine (2 mg/kg, IM). Prior to euthanasia with Euthasol solution (pentobarbital sodium and phenytoin sodium; 0.22 ml/kg, intravenously [IV]), heparin (human pharmaceutical grade, 1,000 U/kg, IV) was administered. The heart was then isolated via a left thoracotomy. Retrograde aortic perfusion of the hearts with ice-cold cardioplegic solution (modified Krebs-Henseleit solution [K-H]; 16 mM KCl) was immediately performed to clear the coronary vasculature of blood. The hearts were then placed in a sealed container containing ice-cold cardioplegic solution and transported to our institution via a private courier in an insulated package surrounded by icepacks.
(§1) Experiments were performed using isolated arterially-perfused canine preparations perfused with Tyrode's solution containing (in mM): NaCl 129, KCl 4, NaH2PO4 0.9, NaHCO3 20, CaCl2 1.8, MgSO4 0.5, glucose 5.5, insulin lunit/liter, bubelled with 95% O2 and 5% CO2. pH=7.4. Preparations consisting of the right atrium with a rim of right ventricle (1.0-2.0 cm) were isolated from the canine hearts (FIG. 1). The ostium of the right coronary artery was cannulated with polyethylene tubing, and the preparations were perfused with cold Tyrode's solution (8°-12° C.) containing 8.5 [K^+]0. With continuous coronary perfusion, all ventricular branches of the right coronary artery were immediately clamped with metal clips (1.5×10 mm; Kent Scientific Corp., Torrington, CT). The total time from excision of the heart to cannulation and perfusion of the artery was 4 minutes. […] coronary branches were ligated using silk thread. The preparations were placed in a temperature-controlled bath (8×6×4 cm) and perfused at a rate of 10-15 mL/min using Tyrode's solution. The temperature was maintained at 37° C.±0.5° C. (PolyStat; Cole Parmer Instrument, IL). The perfusate was delivered to the artery by a roller pump (MasterFlex L/S, Cole Parmer Instrument). An air trap was used to avoid bubbles in the perfusion line.
A well-established acetylcholine (ACh)-mediated non-self-terminating (persistent) AF experimental model was used in the current study.^4 AF was induced by either delivering a single premature stimulus or by rapid pacing (CLs=40-80 ms, for 2-5 seconds). The efficacy and time course for flecainide to cardiovert AF (induced at 4 mM potassium) was studied at 4 mM (baseline) and at 5, 6, and 8 mM of potassium concentration ([K^+]0). Sustained AF (here defined as lasting >1 hour) was induced in 100% experiments in the presence of 4 mM [K^+]. 5-7 minutes after non-self-terminating AF was first introduced at 4 mM [K^+]0, flecainide was added to the Tyrode's perfusate containing either 4 mM [K^+]0 or with a concomitant increase in potassium concentration (to 5, 6, or 8 mM).
Additionally, the capability of elevated potassium (5, 6, and 8 mM) alone to terminate AF was investigated. In these experiments, sustained AF was first induced at 4 mM [K^+]0 and 5-7 minutes later potassium concentrations were increased (to 5, 6, or 8 mM). To mimic hypokalemia, AF termination efficacy of flecainide was tested at 3 mM [K^+]0. If AF was not terminated by the tested conditions in 45 minutes, the AF was considered as “non-terminating”. In the experiments in which AF was cardioverted by tested conditions tested, electrical re-induction of AF was attempted within 1-5 minutes after AF termination (≥5 attempts in ≥2 atrial locations).
Overall, 41 right atrioventricular preparations isolated from 41 canine hearts were used in the study, with 46 experiments investigating AF cardioversion and 11 experiments investigating electrophysiological parameters in atria and ventricles. […]

[2] = system: ventricles; experiment: Electrophysiological parameters (APD, ERP, DTE) in ventricles of isolated arterially-perfused canine preparations; details: CL 500 ms
Protocol: as §1
(§2) Transmembrane action potential (AP) recordings (sampling rate 41 kHz) were obtained from the right atrium and ventricle using floating glass microelectrodes (10-25 MΩ DC resistance). Glass microelectrodes were connected to a high-input impedance intracellular amplifier (Electro-705; World Precision Instruments, Sarasota, FL). A pseudo-electrocardiogram (ECG) was recorded using two electrodes consisting of Ag/AgCl half cells placed in the Tyrode's solution bathing the preparation, 1.0 to 1.2 cm from opposite ends of the atrial coronary-perfused preparations (FIG. 1). The signals were amplified, digitized, and analyzed (Cambridge Electronic Design, Cambridge, England). Effective refractory period (ERP) was measured by delivering premature stimuli after every 10th basic beat at a pacing cycle length (CL) of 500 ms. The diastolic threshold of excitation (DTE) was determined by increasing stimulus intensity in 0.01 mA steps starting from 0.1 mA, until a steady 1:1 activation was achieved. Post-repolarization refractoriness (PRR) was recognized when ERP exceeded an action potential duration at 90% repolarization (APD90) in the ventricle and action potential duration at 70% repolarization (APD70) in atria. Ventricular ERP coincides with APD90, whereas atrial ERP generally coincides with APD70.^4 The electrophysiological measurements were performed following at least 20 min of perfusion with flecainide and 5 min with elevated potassium concentrations. The electrophysiological measurements were obtained at a CL of 500 ms.

[3] = system: acetylcholine-mediated AF; experiment: Electrical re-induction of AF after AF termination in isolated canine right atrial preparations
Protocol: A well-established acetylcholine (ACh)-mediated non-self-terminating (persistent) AF experimental model was used in the current study.^4 AF was induced by either delivering a single premature stimulus or by rapid pacing (CLs=40-80 ms, for 2-5 seconds). The efficacy and time course for flecainide to cardiovert AF (induced at 4 mM potassium) was studied at 4 mM (baseline) and at 5, 6, and 8 mM of potassium concentration ([K^+]0). Sustained AF (here defined as lasting >1 hour) was induced in 100% experiments in the presence of 4 mM [K^+]. 5-7 minutes after non-self-terminating AF was first introduced at 4 mM [K^+]0, flecainide was added to the Tyrode's perfusate containing either 4 mM [K^+]0 or with a concomitant increase in potassium concentration (to 5, 6, or 8 mM). Additionally, the capability of elevated potassium (5, 6, and 8 mM) alone to terminate AF was investigated. In these experiments, sustained AF was first induced at 4 mM [K^+]0 and 5-7 minutes later potassium concentrations were increased (to 5, 6, or 8 mM). To mimic hypokalemia, AF termination efficacy of flecainide was tested at 3 mM [K^+]0. If AF was not terminated by the tested conditions in 45 minutes, the AF was considered as “non-terminating”. In the experiments in which AF was cardioverted by tested conditions tested, electrical re-induction of AF was attempted within 1-5 minutes after AF termination (≥5 attempts in ≥2 atrial locations).

[4] = system: atria; experiment: Electrophysiological parameters (APD, ERP, PRR, DTE) in atria of isolated arterially-perfused canine preparations
Protocol: as §1, §2

[5] = system: ACh-mediated AF; details: elevation of [K+]0 from 4 to 6-8 mM; isolated pig atria; cited from earlier work
[6] = system: recent-onset AF; details: flecainide via oral inhalation; patients with recent-onset AF; cited from earlier work
[7] = [K+]0 from 4 to 6 mM, CL 500 ms
[8] = after cardioversion by flecainide and elevated [K+]0 (5-8 mM)
[9] = after cardioversion by flecainide at [K+]0 4 mM
[10] = flecainide 1.5 μM added at [K+]0 6 mM, CL 500 ms
[11] = flecainide at [K+]0 4 mM, CL 500 ms

[K+] [[K^+]0]
AF terminated, % of experiments / atria ([1]; no flecainide, [K+]0 from 4 to 8 mM): 100% | AF termination (atria terminated / tested) ([1]; no flecainide, [K+]0 increased from 4 to 5 mM): did not terminate and 0/5 and did not cardiovert | AF termination (atria terminated / tested) ([1]; no flecainide, [K+]0 increased from 4 to 6 mM): 2/6 | AF termination (atria terminated / tested) ([1]; no flecainide, [K+]0 increased from 4 to 8 mM): 4/4 | DTE in ventricles ([2]; 6 mM [K+]0 vs 4 mM): not significantly affected | APD in ventricles ([2]; [K+]0 from 4 to 6 mM): significantly abbreviated | ERP in ventricles ([2]; [K+]0 from 4 to 6 mM): significantly abbreviated | Duration of re-induced AF ([3]; 6 mM [K+]0 alone, in one of two experiments): 20 min | AF inducible after termination (atria) ([3]; 8 mM [K+]0 alone): 4/4 | Duration of re-induced AF episodes ([3]; 8 mM [K+]0 alone): ≤ 26 s | AF/AT inducibility after termination ([3]; two experiments in which 6 mM [K+]0 alone terminated AF): readily inducible in both | DTE in atria ([4]; 6 mM [K+]0 vs 4 mM, CL 500 ms): not significantly affected | APD in atria [4, 7]: abbreviated | ERP in atria [4, 7]: significantly prolonging | Post-repolarization refractoriness (PRR) [4, 7]: atrial-selective induction | AF cardioversion (atria cardioverted / tested) [5]: 3/4

O=C(NCC1CCCCN1)c1cc(OCC(F)(F)F)ccc1OCC(F)(F)F (stereo not shown) [flecainide]
AF cardioversion (atria cardioverted / tested) ([1]; [K+]0 3 mM (simulated hypokalemia)): 1/6 | AF cardioversion (atria cardioverted / tested) ([1]; [K+]0 4 mM, ACh 0.5 μM): moderately effective | AF cardioversion (atria cardioverted / tested) ([1]; [K+]0 4 mM, ACh 0.5 μM, listed as Flecainide): 3/6 | AF cardioversion (atria cardioverted / tested) ([1]; [K+]0 elevated to 5 mM): highly effective | AF cardioversion (atria cardioverted / tested) ([1]; [K+]0 elevated to 5 mM, listed as Flecainide): 5/5 | AF cardioversion (atria cardioverted / tested) ([1]; [K+]0 elevated to 6 mM): highly effective | AF cardioversion (atria cardioverted / tested) ([1]; [K+]0 elevated to 6 mM, listed as Flecainide): 5/5 | AF cardioversion (atria cardioverted / tested) ([1]; [K+]0 elevated to 8 mM): highly effective | AF cardioversion (atria cardioverted / tested) ([1]; [K+]0 elevated to 8 mM, listed as Flecainide): 4/4 | Time to conversion (time course of flecainide-mediated AF termination) ([1]; flecainide, elevation of [K+]0 from 4 to 8 mM vs 4 mM): abbreviated | Patients restored to sinus rhythm [6]: approximately 50% | ERP in ventricle ([2]; flecainide 1.5 μM added at [K+]0 6 mM): prolongation | APD in ventricles ([2]; flecainide at [K+]0 4 mM): no significant change | AF/AT inducibility after cardioversion [3, 8]: either not inducible or induced for a very brief episode; also recorded: either not inducible or induced for very brief episodes | Duration of re-induced AF/AT episodes [3, 8]: < 100 s | Duration of re-induced AF/AT episodes, in most cases ([3]; after cardioversion by flecainide and elevated [K+]0 (5-8 mM), in most cases): < 10 s | AF or atrial tachycardia inducible after cardioversion (preparations) [3, 9]: 3/3 | Duration of re-induced AF/AT episodes [3, 9]: ≤ 300 s | Duration of re-induced AF episodes ([3]; flecainide at 3 mM [K+]0 (hypokalemia)): ≤ 1860 s | AF re-induction after termination ([3]; flecainide at 3 mM [K+]0 (hypokalemia), the only atria terminated): readily re-induced | Depression of excitability, atria vs ventricles ([4]; combined flecainide and elevated [K+]0 (6 mM)): atrial predominant depression of excitability; also recorded: atrial preferential depression of excitability | ERP in atria [4, 10]: much more pronounced in the atria | Post-repolarization refractoriness (PRR) [4, 10]: atrial predominant development | DTE ([4]; flecainide alone at [K+]0 4 mM, CL 500 ms): moderate atrial predominant increase | APD in atria [4, 11]: no significant change | ERP in atria [4, 11]: substantial lengthening | DTE ([4]; flecainide in the presence of 6 mM [K+]0, CL 500 ms): large atrial-selective increase
